From patent US10710978B2, “STK4 inhibitors for treatment of hematologic malignancies” (Dana-Farber Cancer Institute, Inc., priority 2015, dated 2020)
Where two headings read alike, the source gives them in different places.

Columns and labels:
Assay in all cases: KiNativ assay
Assay type in all cases: binding
Conditions in all cases: H929 live cell
CDK2 = CDK2 (Homo sapiens (Human), UniProt P24941)
Experimental: (§1) Biochemical IC50s of the compounds of the present disclosure against various kinases were measured in a KiNativ assay. Compounds were screened in duplicate at 10 μM in H929 live cell. IC50 was measured via Mass spectroscopy (MS).

PKN1 = PKN1 (Homo sapiens (Human), UniProt Q16512)
Experimental: as §1

STLK3 = STLK3 (Homo sapiens (Human), UniProt Q9UEW8)
Experimental: as §1

eEF2K = eEF2K (Homo sapiens (Human), UniProt O00418)
Experimental: as §1

SRPK1 = SRPK1 (Homo sapiens (Human), UniProt Q96SB4)
Experimental: as §1

MAP2K3 = MAP2K3 (Homo sapiens (Human), UniProt P46734)
Experimental: as §1

MST1, MST2 = tested on: MST1, MST2
Experimental: as §1

PITSLRE = tested on: PITSLRE
Experimental: as §1

RSK1 domain2 = RSK1 domain2 (Homo sapiens (Human), UniProt Q15418)
Chain of RSK1 domain2 (Q15418 whole entry, the tested form may be a part): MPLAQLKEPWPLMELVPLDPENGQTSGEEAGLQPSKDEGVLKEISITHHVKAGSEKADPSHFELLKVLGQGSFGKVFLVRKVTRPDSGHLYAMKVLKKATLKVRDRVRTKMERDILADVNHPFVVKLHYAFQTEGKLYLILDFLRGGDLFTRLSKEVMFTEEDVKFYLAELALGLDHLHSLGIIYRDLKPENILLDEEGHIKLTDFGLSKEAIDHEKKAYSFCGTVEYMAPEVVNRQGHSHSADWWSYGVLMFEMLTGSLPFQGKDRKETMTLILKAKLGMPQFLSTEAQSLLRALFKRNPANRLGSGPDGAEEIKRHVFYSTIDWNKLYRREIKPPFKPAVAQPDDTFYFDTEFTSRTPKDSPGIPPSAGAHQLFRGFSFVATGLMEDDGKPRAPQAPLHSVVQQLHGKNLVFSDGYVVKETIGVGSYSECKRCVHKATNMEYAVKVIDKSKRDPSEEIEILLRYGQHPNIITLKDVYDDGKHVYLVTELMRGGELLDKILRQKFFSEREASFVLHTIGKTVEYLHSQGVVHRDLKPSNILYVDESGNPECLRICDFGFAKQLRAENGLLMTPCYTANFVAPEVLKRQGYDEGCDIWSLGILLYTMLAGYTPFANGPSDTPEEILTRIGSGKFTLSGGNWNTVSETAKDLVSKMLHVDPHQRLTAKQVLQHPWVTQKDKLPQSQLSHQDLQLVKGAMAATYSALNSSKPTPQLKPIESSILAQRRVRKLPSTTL
Experimental: as §1

[1] = tested on: ZC1/HGK, ZC2/TNIK, ZC3/MINK
Experimental: as §1

LKB1 = LKB1 (Homo sapiens (Human), UniProt Q15831)
Chain of LKB1 (Q15831 whole entry): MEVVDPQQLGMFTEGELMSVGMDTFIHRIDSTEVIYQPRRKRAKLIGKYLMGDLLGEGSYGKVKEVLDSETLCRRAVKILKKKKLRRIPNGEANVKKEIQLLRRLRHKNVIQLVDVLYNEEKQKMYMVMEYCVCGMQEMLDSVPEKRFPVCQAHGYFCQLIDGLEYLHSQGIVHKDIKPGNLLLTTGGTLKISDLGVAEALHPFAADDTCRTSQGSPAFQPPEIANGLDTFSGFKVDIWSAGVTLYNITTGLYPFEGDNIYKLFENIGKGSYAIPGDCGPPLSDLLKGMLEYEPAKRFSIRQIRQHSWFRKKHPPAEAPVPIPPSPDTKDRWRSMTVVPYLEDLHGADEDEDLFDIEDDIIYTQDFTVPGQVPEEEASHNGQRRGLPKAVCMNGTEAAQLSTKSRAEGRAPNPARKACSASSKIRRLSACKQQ
Experimental: as §1

MST1 = MST1 (Homo sapiens (Human), UniProt Q13043)
Experimental: as §1

CDK7 = CDK7 (Homo sapiens (Human), UniProt P50613)
Experimental: as §1

NDR1 = NDR1 (Homo sapiens (Human), UniProt Q15208)
Experimental: as §1

MARK2 = MARK2 (Homo sapiens (Human), UniProt Q7KZI7)
Experimental: as §1

CaMK2g = CaMK2g (Homo sapiens (Human), UniProt Q13555)
Experimental: as §1

PKD3 = PKD3 (Homo sapiens (Human), UniProt O94806)
Experimental: as §1

MAP3K5 = MAP3K5 (Homo sapiens (Human), UniProt Q99683)
Chain of MAP3K5 (Q99683 whole entry): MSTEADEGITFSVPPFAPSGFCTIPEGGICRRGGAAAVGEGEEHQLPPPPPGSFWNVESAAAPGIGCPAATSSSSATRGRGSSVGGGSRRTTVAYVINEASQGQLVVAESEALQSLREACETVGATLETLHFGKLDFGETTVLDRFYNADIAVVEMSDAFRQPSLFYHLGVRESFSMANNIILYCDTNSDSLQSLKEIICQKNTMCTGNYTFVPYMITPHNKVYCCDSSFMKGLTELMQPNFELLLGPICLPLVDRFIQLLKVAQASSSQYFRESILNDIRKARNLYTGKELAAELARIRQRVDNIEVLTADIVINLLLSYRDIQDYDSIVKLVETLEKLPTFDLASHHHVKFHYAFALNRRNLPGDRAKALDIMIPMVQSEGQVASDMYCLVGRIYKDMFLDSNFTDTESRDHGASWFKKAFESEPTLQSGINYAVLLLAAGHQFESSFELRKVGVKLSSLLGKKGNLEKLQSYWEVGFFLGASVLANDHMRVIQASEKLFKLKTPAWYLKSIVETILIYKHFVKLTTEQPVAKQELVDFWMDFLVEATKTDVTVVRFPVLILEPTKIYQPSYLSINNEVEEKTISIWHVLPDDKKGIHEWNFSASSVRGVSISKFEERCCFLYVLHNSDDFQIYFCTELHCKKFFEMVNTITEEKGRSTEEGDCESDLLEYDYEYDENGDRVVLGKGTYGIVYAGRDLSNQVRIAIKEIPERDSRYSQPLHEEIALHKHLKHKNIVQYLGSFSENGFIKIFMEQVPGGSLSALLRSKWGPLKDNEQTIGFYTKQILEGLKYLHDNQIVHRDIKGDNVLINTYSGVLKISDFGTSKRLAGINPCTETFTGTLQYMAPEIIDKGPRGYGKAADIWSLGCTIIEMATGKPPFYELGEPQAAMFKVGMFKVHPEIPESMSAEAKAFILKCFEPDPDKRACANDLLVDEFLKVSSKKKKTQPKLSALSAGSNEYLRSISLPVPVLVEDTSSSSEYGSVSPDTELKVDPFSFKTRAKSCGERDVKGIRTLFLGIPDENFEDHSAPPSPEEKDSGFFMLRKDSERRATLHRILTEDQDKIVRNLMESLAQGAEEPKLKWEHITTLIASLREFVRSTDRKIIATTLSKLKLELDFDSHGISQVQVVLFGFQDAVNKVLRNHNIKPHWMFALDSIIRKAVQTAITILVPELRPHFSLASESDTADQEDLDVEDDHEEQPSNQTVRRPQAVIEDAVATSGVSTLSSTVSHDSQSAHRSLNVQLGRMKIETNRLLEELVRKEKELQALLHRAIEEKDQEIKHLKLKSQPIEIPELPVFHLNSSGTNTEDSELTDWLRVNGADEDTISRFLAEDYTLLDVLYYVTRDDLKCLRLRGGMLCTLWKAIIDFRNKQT
Experimental: as §1

RSK2 domain2 = RSK2 domain2 (Homo sapiens (Human), UniProt P51812)
Experimental: as §1

CDK11, CDK8 = tested on: CDK11, CDK8
Experimental: as §1

ACK = ACK (Homo sapiens (Human), UniProt Q07912)
Experimental: as §1

ILK = ILK (Homo sapiens (Human), UniProt Q13418)
Chain of ILK (Q13418 whole entry): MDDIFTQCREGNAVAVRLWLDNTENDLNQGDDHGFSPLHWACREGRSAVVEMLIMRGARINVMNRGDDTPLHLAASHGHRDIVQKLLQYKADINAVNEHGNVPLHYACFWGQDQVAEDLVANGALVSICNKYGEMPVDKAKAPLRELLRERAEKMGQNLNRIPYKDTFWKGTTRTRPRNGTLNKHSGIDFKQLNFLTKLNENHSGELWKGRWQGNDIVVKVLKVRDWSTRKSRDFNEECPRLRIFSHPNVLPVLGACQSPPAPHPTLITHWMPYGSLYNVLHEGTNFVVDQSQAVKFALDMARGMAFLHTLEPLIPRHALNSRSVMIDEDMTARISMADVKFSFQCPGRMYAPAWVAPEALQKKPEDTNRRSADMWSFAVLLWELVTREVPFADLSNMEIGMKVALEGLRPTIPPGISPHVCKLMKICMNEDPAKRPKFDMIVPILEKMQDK
Experimental: as §1

CSK = CSK (Homo sapiens (Human), UniProt P41240)
Experimental: as §1

DGKH = DGKH (Homo sapiens (Human), UniProt Q86XP1)
Chain of DGKH (Q86XP1 whole entry): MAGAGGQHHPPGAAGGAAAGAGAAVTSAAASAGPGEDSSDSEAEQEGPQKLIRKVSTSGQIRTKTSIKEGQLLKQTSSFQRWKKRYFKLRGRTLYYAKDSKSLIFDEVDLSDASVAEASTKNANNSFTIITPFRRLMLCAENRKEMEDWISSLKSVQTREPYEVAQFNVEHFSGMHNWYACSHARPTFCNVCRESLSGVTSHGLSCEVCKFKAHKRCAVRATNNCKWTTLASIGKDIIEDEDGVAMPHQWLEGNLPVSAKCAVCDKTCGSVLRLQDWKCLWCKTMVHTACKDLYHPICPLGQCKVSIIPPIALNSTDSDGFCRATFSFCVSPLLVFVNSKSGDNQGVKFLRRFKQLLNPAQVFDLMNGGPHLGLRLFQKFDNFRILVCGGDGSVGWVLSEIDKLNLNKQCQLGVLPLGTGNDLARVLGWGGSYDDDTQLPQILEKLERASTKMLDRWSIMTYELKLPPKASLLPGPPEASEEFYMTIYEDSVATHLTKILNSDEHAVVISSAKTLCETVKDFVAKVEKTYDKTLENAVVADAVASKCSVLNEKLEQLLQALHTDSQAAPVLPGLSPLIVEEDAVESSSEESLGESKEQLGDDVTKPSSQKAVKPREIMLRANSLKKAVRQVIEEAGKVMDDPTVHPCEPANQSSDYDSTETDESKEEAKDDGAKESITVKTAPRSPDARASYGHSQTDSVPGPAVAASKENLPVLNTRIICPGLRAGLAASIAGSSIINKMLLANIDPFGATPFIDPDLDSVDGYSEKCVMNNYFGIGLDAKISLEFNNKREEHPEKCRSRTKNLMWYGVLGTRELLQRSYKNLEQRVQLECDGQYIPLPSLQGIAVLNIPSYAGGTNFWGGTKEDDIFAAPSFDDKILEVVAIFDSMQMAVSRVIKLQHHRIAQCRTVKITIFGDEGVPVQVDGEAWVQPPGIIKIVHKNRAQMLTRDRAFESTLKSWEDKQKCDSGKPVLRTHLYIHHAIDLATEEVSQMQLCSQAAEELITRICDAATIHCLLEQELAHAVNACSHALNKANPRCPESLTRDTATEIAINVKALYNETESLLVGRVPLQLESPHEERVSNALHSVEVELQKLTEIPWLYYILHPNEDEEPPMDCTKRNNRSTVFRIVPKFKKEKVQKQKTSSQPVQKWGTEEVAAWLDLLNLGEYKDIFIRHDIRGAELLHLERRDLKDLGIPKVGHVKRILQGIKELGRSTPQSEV
Experimental: as §1

CaMK2d = CaMK2d (Homo sapiens (Human), UniProt Q13557)
Experimental: as §1

MLK3 = MLK3 (Homo sapiens (Human), UniProt Q16584)
Chain of MLK3 (Q16584 whole entry): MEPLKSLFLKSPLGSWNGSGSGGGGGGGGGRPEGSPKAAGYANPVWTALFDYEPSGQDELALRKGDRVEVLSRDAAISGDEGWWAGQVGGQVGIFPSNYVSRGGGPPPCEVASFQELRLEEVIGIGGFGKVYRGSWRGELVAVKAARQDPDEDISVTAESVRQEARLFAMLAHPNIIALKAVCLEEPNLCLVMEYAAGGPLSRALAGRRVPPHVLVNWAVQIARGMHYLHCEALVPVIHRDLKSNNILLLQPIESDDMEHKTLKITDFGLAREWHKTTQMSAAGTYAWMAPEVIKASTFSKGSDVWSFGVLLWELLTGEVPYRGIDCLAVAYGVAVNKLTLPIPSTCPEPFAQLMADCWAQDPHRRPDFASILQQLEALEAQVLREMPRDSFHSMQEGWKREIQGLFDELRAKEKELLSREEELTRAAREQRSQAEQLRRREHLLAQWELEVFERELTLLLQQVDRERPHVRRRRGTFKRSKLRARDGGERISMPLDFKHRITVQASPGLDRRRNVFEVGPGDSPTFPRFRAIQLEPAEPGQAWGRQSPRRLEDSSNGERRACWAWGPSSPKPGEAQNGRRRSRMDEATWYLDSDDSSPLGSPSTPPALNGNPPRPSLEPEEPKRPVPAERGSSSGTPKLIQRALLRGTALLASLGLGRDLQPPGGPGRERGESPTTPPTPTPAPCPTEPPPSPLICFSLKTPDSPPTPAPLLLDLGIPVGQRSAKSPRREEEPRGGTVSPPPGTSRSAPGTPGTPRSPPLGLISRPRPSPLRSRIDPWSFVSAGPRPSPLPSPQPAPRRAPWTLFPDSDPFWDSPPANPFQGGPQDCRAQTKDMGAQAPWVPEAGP
Experimental: as §1

PRPK = PRPK (Homo sapiens (Human), UniProt Q96S44)
Experimental: as §1

MST4 = tested on: MST4
Experimental: as §1

MST4, YSK1 = tested on: MST4, YSK1
Experimental: as §1

PKCz = PKCz (Homo sapiens (Human), UniProt Q05513)
Experimental: as §1

PIP4K2C = PIP4K2C (Homo sapiens (Human), UniProt Q8TBX8)
Experimental: as §1

PAN3 = PAN3 (Homo sapiens (Human), UniProt Q58A45)
Experimental: as §1

JAK1 domain2 = JAK1 domain2 (Homo sapiens (Human), UniProt P23458)
Experimental: as §1

LOK = LOK (Homo sapiens (Human), UniProt O94804)
Experimental: as §1

[2] = range class, read-out: % inhibition

For `Nc1ncc(-c2ccc(NS(=O)(=O)C3CC3)cc2F)cc1-c1ccc2c(c1)CCNC2=O` [Compound I-51, N-(4-(6-amino-5-(1-oxo-1,2,3,4-tetrahydroisoquinolin-6-yl)pyridin-3-yl)-3-fluorophenyl) cyclopropanesulfonamide], the inhibition at 10 µM (CDK2; [2]) was 35 to 40%, the inhibition at 10 µM (CDK2; read-out: inhibition (10 μM)) was 35% and the inhibition at 10 µM (PKN1; [2]) was 0%. For the same compound, the inhibition at 10 µM (PKN1; read-out: inhibition (10 μM)) was -72.1%, the inhibition at 10 µM (STLK3; [2]) was 0% and the inhibition at 10 µM (STLK3; read-out: inhibition (10 μM)) was -5%. For the same compound, the inhibition at 10 µM (eEF2K; [2]) was 0%, the inhibition at 10 µM (eEF2K; read-out: inhibition (10 μM)) was 7.7% and the inhibition at 10 µM (SRPK1; [2]) was 0%. For the same compound, the inhibition at 10 µM (SRPK1; read-out: inhibition (10 μM)) was -11.5%, the inhibition at 10 µM (MAP2K3; [2]) was 0% and the inhibition at 10 µM (MAP2K3; read-out: inhibition (10 μM)) was 0.9%. For the same compound, the “% inhibition” value (MST1, MST2; 10 μM, range class) was >90%, the “inhibition (10 μM)” value (MST1, MST2) was 98.4% and the “% inhibition” value (PITSLRE; 10 μM, range class) was 0.0%. For the same compound, the “inhibition (10 μM)” value (PITSLRE) was −20.2%, the inhibition at 10 µM (RSK1 domain2; [2]) was 0% and the inhibition at 10 µM (RSK1 domain2; read-out: inhibition (10 μM)) was 11%. For the same compound, the “% inhibition” value ([1]; 10 μM, range class) was >90%, the “inhibition (10 μM)” value [1] was 97.2% and the inhibition at 10 µM (LKB1; [2]) was 0%. For the same compound, the inhibition at 10 µM (LKB1; read-out: inhibition (10 μM)) was 5.1%, the inhibition at 10 µM (MST1; [2]) was > 90% and the inhibition at 10 µM (MST1; read-out: inhibition (10 μM)) was 96.3%. For the same compound, the inhibition at 10 µM (CDK7; [2]) was 0%, the inhibition at 10 µM (CDK7; read-out: inhibition (10 μM)) was 17.4% and the inhibition at 10 µM (NDR1; [2]) was 0%. It also gave an inhibition at 10 µM (NDR1; read-out: inhibition (10 μM)) of 16.8%, an inhibition at 10 µM (MARK2; [2]) of 0% and an inhibition at 10 µM (MARK2; read-out: inhibition (10 μM)) of 24.6%. For the same compound, the inhibition at 10 µM (CaMK2g; [2]) was 0%, the inhibition at 10 µM (CaMK2g; read-out: inhibition (10 μM)) was -6.4% and the inhibition at 10 µM (PKD3; [2]) was 50 to 75%. It also gave an inhibition at 10 µM (PKD3; read-out: inhibition (10 μM)) of 74.8%, an inhibition at 10 µM (MAP3K5; [2]) of 0% and an inhibition at 10 µM (MAP3K5; read-out: inhibition (10 μM)) of 16.3%. The inhibition at 10 µM (RSK2 domain2; [2]) was 0%, the inhibition at 10 µM (RSK2 domain2; read-out: inhibition (10 μM)) was 9.9% and the “% inhibition” value (CDK11, CDK8; 10 μM, range class) was 0.0%. The “inhibition (10 μM)” value (CDK11, CDK8) was 31.8%, the inhibition at 10 µM (ACK; [2]) was 0% and the inhibition at 10 µM (ACK; read-out: inhibition (10 μM)) was -39%. The inhibition at 10 µM (ILK; [2]) was 0%, the inhibition at 10 µM (ILK; read-out: inhibition (10 μM)) was -31.3% and the inhibition at 10 µM (CSK; [2]) was 0%. The inhibition at 10 µM (CSK; read-out: inhibition (10 μM)) was 6.9%, the inhibition at 10 µM (DGKH; [2]) was 0% and the inhibition at 10 µM (DGKH; read-out: inhibition (10 μM)) was 2.7%. For the same compound, the inhibition at 10 µM (CaMK2d; [2]) was 0%, the inhibition at 10 µM (CaMK2d; read-out: inhibition (10 μM)) was 2.3% and the inhibition at 10 µM (MLK3; [2]) was 35 to 40%. The inhibition at 10 µM (MLK3; read-out: inhibition (10 μM)) was 42.3%, the inhibition at 10 µM (PRPK; [2]) was 0% and the inhibition at 10 µM (PRPK; read-out: inhibition (10 μM)) was -47.4%. For the same compound, the “% inhibition” value (MST4; 10 μM, range class) was 0.0%, the “inhibition (10 μM)” value (MST4) was 33.9% and the “% inhibition” value (MST4, YSK1; 10 μM, range class) was 50-75%. For the same compound, the “inhibition (10 μM)” value (MST4, YSK1) was 68.1%, the inhibition at 10 µM (PKCz; [2]) was 0% and the inhibition at 10 µM (PKCz; read-out: inhibition (10 μM)) was 2.1%. For the same compound, the inhibition at 10 µM (PIP4K2C; [2]) was 75 to 90%, the inhibition at 10 µM (PIP4K2C; read-out: inhibition (10 μM)) was 85.4% and the inhibition at 10 µM (PAN3; [2]) was 0%. The inhibition at 10 µM (PAN3; read-out: inhibition (10 μM)) was -39.1%, the inhibition at 10 µM (JAK1 domain2; [2]) was 0% and the inhibition at 10 µM (JAK1 domain2; read-out: inhibition (10 μM)) was -6.4%. The inhibition at 10 µM (LOK; [2]) was > 90% and the inhibition at 10 µM (LOK; read-out: inhibition (10 μM)) was 96.9%.
